Experimental data from US20230220047A1, “PEPTIDES FOR TREATMENT OF SEPSIS AND CANCER” (NORWEGIAN UNIVERSITY OF SCIENCE AND TECHNOLOGY (NTNU), priority 2020, published 2023).

These substances were tested on ANBL-6 multiple myeloma cells (assay: CellTiter-Glo cell viability assay, ANBL-6). Conditions: 15 μM.
Format: cell-based
Description: Minor effects on the proliferation of the IH-1 and RPMI 8226 cell lines are seen. Cells were seeded at the level shown (left-hand bar of each set) then incubated in medium containing water, 10 μM penetratin or 10 μM P7-A4-Pen for 48 hr (except for INA-6 cells, which were incubated with 12.5 μM penetratin or 12.5 μM P7-A4-Pen). The number of viable cells was detected based on quantitation of ATP by luminescent signal in correlation to a standard curve prepared for each cell line. Results are based on 3-5 biological replicates for each condition, error bars show standard deviation of mean.
Cells were seeded and then incubated in growth medium alone or supplemented with water, DMSO, 15 μM penetratin or 15 μM investigational peptide. The growth medium only and H2O—, DMSO- and penetratin-supplemented cultures constituted controls.
The solid horizontal lines show the amount of cells originally seeded. In (A) ANBL-6 cells were seeded at a level of 10,000 cells/well, then incubated in medium supplemented with water, the control peptide C3A-Pen, P7-Pen, P7-A4-Pen, P7-N4-Pen or P7-K2-Pen for 48 hours. The peptides were included at concentrations of 5, 10, 12.5, 15, 20 or 30 μM. Cells were counted at 48 hours. In (B), ANBL-6 cells were seeded at a level of 5000 cells/well, then incubated in medium supplemented with water, P6-Pen, P-P6-Pen, P7-D4-Pen or P7-A4-Pen for 48 hours. Peptides were included at concentrations of 5, 10 or 20 μM. Cells were counted at 48 hours. […] Results are based on 3 biological replicates, error bars show standard deviation of mean.
Multiple myeloma cells JJN-3 (DSMZ (Germany) no. ACC 541), ANBL-6 (Cellosaurus accession number CVCL_5425, obtained from Dr Diane Jelinek, Mayo Clinic, Rochester, Minn.), INA-6 (Cellosaurus accession number CVCL_5209, obtained from Dr M. Gramatzki, University of Erlangen-Nurnberg, Erlangen, Germany), RPMI-8226 (ATCC CCL-155), and IH-1 (Cellosaurus accession number CVCL_WZ44, established from the pleural effusion of a myeloma patient by Myeloma research group, IKOM, NTNU, Trondheim, Norway) were grown in RPMI-1640 (Sigma-Aldrich Norway, Oslo, Norway) supplemented with 100 nM penicillin/streptomycin and 10% FCS, and for ANBL-6, IH-1 and INA-6 cells 2 ng/ml recombinant IL-6 (Gibco, Thermo Fisher Scientific, Waltham, Mass., USA). Murine multiple myeloma Vk*MYC cells were obtained from M.D. Leif Bergsagel (Mayo Clinic, Richester, Minn., USA) and cultured in RPMI-1640 supplemented with 2% human serum (B^+, The blood bank, St Olav's Hospital, Trondheim, Norway), 100 nM penicillin/streptomycin, L-Glutamine (2 mM) and recombinant IL-6 (1 ng/ml). HEK293T (ATCC CRL-3216) were cultured in DMEM with 10% FCS. THP-1 TRAM knockout (KO) and TLR4 KO cell lines, and matching lentivirally transduced control cell lines, were differentiated in the same way as wild type (WT) THP-1. TRAM KO THP-1 cell line is described in Yurchenko et al. (supra).
To evaluate the potential impact of the P7 peptide on proliferation of tumour cells of lymphoid origin, we performed a CellTiter-Glo Luminescent Cell Viability Assay to address proliferation of several multiple myeloma (MM) cell lines. For the assay, cells were incubated for 48 h in respective media containing either solvent (water), 10 μM control peptide (Pen) or the SLAMF1-derived peptide P7-A4-Pen for 48 h (FIG. 32) (with the exception of the INA-6 cells which were incubated with 12.5 μM control peptide or P7-A4-Pen). […] This effect could be mediated by P7-A4-Pen-induced inhibition of signalling pathways that are crucial for driving proliferation and/or survival of MM tumour cells.
“Ac-ITVDASVTLTGRQIKIWFQNRRMKWKK-NH2 [Peptide P7-D4-Pen]” was tested, and the “effect on proliferation of ANBL-6 cells” value was “anti-proliferative effect”. With “ITVSASVTLTGRQIKIWFQNRRMKWKK (Ac-ITVSASVTLTGRQIKIWFQNRRMKWKK-NH2) [Peptide P7-S4-Pen]” the “effect on proliferation of ANBL-6 cells” value was “anti-proliferative effect”. With “Ac-IKVYASVTLTGRQIKIWFQNRRMKWKK-NH2 [Peptide P7-K2-Pen]” the “effect on proliferation of ANBL-6 cells” value was “anti-proliferative effect”.

Same assay, conditions: 5, 10, 12.5, 15, 20 and 30 μM or 5, 10 and 20 μM, 48 h
In the case of “Ac-ITVDASVTLTGRQIKIWFQNRRMKWKK-NH2 [Peptide P7-D4-Pen]”, the “anti-proliferative activity over a concentration series” value is reported as “clear concentration-dependent effect”. With “Ac-IKVYASVTLTGRQIKIWFQNRRMKWKK-NH2 [Peptide P7-K2-Pen]” the “anti-proliferative activity over a concentration series” value was “clear concentration-dependent effect”. For “IATYASVTLTGRQIKIWFQNRRMKWKK (Ac-IATYASVTLTGRQIKIWFQNRRMKWKK-NH2) [Peptide P7C3A-Pen, control peptide]”, the “anti-proliferative activity over a concentration series” value was “essentially no anti-proliferative effect”.

What follows are substances tested on THP-1 cells (assay: LDH cytotoxicity assay in THP-1 cells). Conditions: CPP screen, 15 μM, 30 min pre-treatment, LPS 100 ng/ml.
Description: For every assay, separate wells were seeded for the required controls (Spontaneous LDH Release Controls and Maximum LDH Release Control) with the same amount of cells as used for peptide treatments. All supernatants were analysed in triplicate with the average value of technical replicates taken into calculations.
THP-1 cells were pre-treated with increasing concentrations of P7-Arg11 and control peptide Arg11 for 1 h (FIG. 3).
For “Ac-RRRRRRRRRRRGITVYASVTLT-NH2 [Arg11-P7]”, the “reduction of LPS-mediated toxicity (LDH assay)” value (“reduction” for short) was “some decrease”. In the case of “Ac-ITVYASVTLTGRRRRRRRRR-NH2 [Peptide P7-Arg9]”, the “reduction” value is reported as “some decrease”. In the case of “Ac-ITVYASVTLTGRRRRRRR-NH2 [Peptide P7-Arg7, ITVYASVTLTGRRRRRRR]”, the “reduction” value is reported as “some decrease”.

Each substance was assayed on TLR4 (assay: qPCR of LPS-mediated cytokine mRNA expression in THP-1 macrophages). Conditions: control/decoy peptide (data not shown).
Format: cell-based, human
Description: SW480 (ATCC CCL-228) and Jurkat (ATCC Clone E6-1; TIB-152) cells were cultured in RPMI 1640 (Sigma-Aldrich, Schnelldorf, Germany) supplemented with 10% heat-inactivated FCS, penicillin/streptomycin (Life Technologies) and 20 mM L-Glutamine. THP-1 cells (ATCC TIB-202) were cultured in RPMI-1640 (high-glucose, ATCC) supplemented with 10% heat inactivated foetal calf serum (FCS), 100 nM penicillin/streptomycin and 5 μM β-mercaptoethanol (Sigma). THP-1 cells were differentiated with 60 ng/ml phorbol 12-myristate 13-acetate (PMA, Sigma) for 72 h, followed by 24 or 48 h in medium without PMA.
Total RNA was isolated from the cells using Qiazol reagent #79306 from QIAGEN, and chloroform extraction followed by purification on RNeasy Mini columns with DNAse digestion (Qiagen). cDNA was prepared using the Maxima First Strand cDNA Synthesis Kit for quantitative real-time polymerase chain reaction (RT-qPCR) (Thermo Fisher Scientific) according to the manufacturer's protocol. qPCR was performed using the PerfeCTa qPCR FastMix (Quanta Biosciences) in replicates and cycled in a StepOnePlus™ Real-Time PCR cycler. The following TaqMan® Gene Expression Assays (Applied Biosystems®) were used: IFNβ (Hs01077958_s1), TNF (Hs00174128_m1), TBP (Hs00427620_m1), CXCL10 (Hs01124251_g1), IL-6 (Hs00174131_m1) and IL-1β (Hs01555410_m1), for human cells; Ifnβ (Mm00439552_s1), Tnf (Mm00443258_m1), Tbp (Mm01277042_m1) and II-1β (Mm00434228_m1), for mouse cells. No RT controls were negative. The level of TBP mRNA was used for normalisation and results presented as relative expression compared to the control untreated sample. Relative expression was calculated using Pfaffl's mathematical model (Pfaffl, Nucleic Acids Research 29(9): e45, 2001). Results are presented as the mean and SD expression fold change for biological replicates relative to non-stimulated cells. Statistical significance was evaluated in GraphPad Prizm 5.03. Data distribution was assumed to be normal but this was not formally tested. The difference between the two groups was determined by two-tailed t test.
For “IATYASTALTGRRRRRRRRRRR (Ac-IATYASTALTGRRRRRRRRRRR-NH2) [Peptide P7C3-Arg11, control/decoy peptide]”, the “LPS- or E. coli particle-induced expression of IFNβ, CXCL10 and TNF” value was “no effect”.

What follows are substances tested on TLR4 (assay: ELISA/Bioplex of LPS-mediated cytokine secretion by THP-1 cells). Conditions: 15 μM, 30 min pre-treatment, LPS 100 ng/ml 5 h; relative to P7-Pen.
Format: cell-based, human
Description: (A) Results of LDH assay and ELISAs analysing cytokine secretion after 5 h of stimulation with LPS (graphs show mean values for at least 3 biological replicates). […] In the tables average values are presented based on 3-5 biological replicates for each experiment. […]
TNF in supernatants was detected using a human TNF-alpha DuoSet ELISA (DY210) (R&D Systems); CXCL10 using a DuoSet ELISA (DY266) (R&D Systems); IL-1β using a BD OptEiA human IL-1β ELISA SetII (#557953, BD Biosciences): IFNβ using a VeriKine-HS™ Human Interferon-Beta Serum ELISA Kit (#41415) from PBL Assay Science. Some supernatants were also analysed by multiplex cytokine assay (Bio-Plex; Bio-Rad Laboratories Inc.) for IL-1β, IL-6, IL-8, CXCL10/IP-10. Results are presented as mean and SD for biological replicates for a representative donor (primary human macrophages), or at least three independent experiments for the model cell line THP-1. Statistical significance was evaluated in GraphPad Prizm 5.03. Data distribution was assumed to be normal but this was not formally tested. The difference between the two groups was determined by two-tailed t test.
“ITVYASVTLPAGRQIKIWFQNRRMKWKK (P10-A11-Pen) [P10-Ala11-Pen]” was tested, and the “inhibitory activity towards LPS-induced CXCL10, TNF and IL-1β secretion (ELISA)” value was “totally abrogated”. With “Ac-ITVYASVTLGGRQIKIWFQNRRMKWKK-NH2 [Peptide P7-G10-Pen]” the “inhibitory activity towards LPS-induced CXCL10, TNF and IL-1β secretion (ELISA)” value was “high levels of activity”. In the case of “Ac-ITVYASVTLDGRQIKIWFQNRRMKWKK-NH2 [Peptide P7-D10-Pen]”, the “inhibitory activity towards LPS-induced CXCL10, TNF and IL-1β secretion (ELISA)” value is reported as “high levels of activity”. “ITVYASVTLPEGRQIKIWFQNRRMKWKK (Ac-ITVYASVTLPEGRQIKIWFQNRRMKWKK-NH2) [Peptide P10-Pen]” was tested, and the “inhibitory activity towards LPS-induced CXCL10, TNF and IL-1β secretion (ELISA)” value was “totally abrogated”. In the case of “ITVYASVTLTEGRQIKIWFQNRRMKWKK (P11-Pen) [Peptide P11-Pen]”, the “inhibitory activity towards LPS-induced CXCL10, TNF and IL-1β secretion (ELISA)” value is reported as “totally abrogated”. With “NSITVYASVTLTGRQIKIWFQNRRMKWKK (P3sh2-Pen) [Peptide P3sh2-Pen]” the “inhibitory activity towards LPS-induced CXCL10, TNF and IL-1β secretion (ELISA)” value was “did not cause loss of inhibitory activity”. For “TNSITVYASVTLTGRQIKIWFQNRRMKWKK (P3sh1-Pen) [Peptide P3sh1-Pen]”, the “inhibitory activity towards LPS-induced CXCL10, TNF and IL-1β secretion (ELISA)” value was “did not cause loss of inhibitory activity”. In the case of “ITVYASVTLTAGRQIKIWFQNRRMKWKK (P11-A11-Pen) [P11-Ala11-Pen]”, the “inhibitory activity towards LPS-induced CXCL10, TNF and IL-1β secretion (ELISA)” value is reported as “totally abrogated”. For “ATVYASVTLTGRQIKIWFQNRRMKWKK (P7-A1-Pen) [Peptide P7-A1-Pen]”, the “inhibitory activity towards LPS-induced CXCL10, TNF and IL-1β secretion (ELISA)” value was “totally abrogated activity”. “ITLYASVTLTGRQIKIWFQNRRMKWKK (Ac-ITLYASVTLTGRQIKIWFQNRRMKWKK-NH2) [Peptide P7-L3-Pen]” was tested, and the “inhibitory activity towards LPS-induced CXCL10, TNF and IL-1β secretion (ELISA)” value was “only partially decreased”.

Each substance was assayed on TLR4 (assay: Western blot of LPS signalling in THP-1 cells and primary human monocytes). Conditions: data not shown.
Format: cell-based
Description: Protein pellets were dissolved by heating protein pellets for 10 min at 95° C. in buffer containing 4 M urea, 1 SDS (Sigma) and NuPAGE® LDS Sample Buffer (4×) (Thermo Fisher Scientific). Otherwise, lysates were made using 1× RIPA lysis buffer (150 mM NaCl, 50 mM TrisHCl (pH 7.5), 1% Triton X100, 5 mM EDTA, protease inhibitors, phosphatase inhibitors). For Western blot analysis we used pre-cast protein gels NuPAGE™ Novex™ and iBlot Transfer Stacks iBlot Gel Transfer Device (Thermo Fisher Scientific). Proteins were transferred to the membrane by dry-blotting using iBlot® 2 NC Regular/Mini Stacks (Life Technologies) in the iBlot 2 Dry Blotting System (Life Technologies). After secondary antibody incubation, membranes were washed and incubated with HRP substrate solution (SuperSignal™ West Femto Maximum Sensitivity Substrate (Thermo Fisher Scientific)). Images were taken using Odyssey® Fc (LI-CORE). Quantification graphs were generated by the analysis of signal intensities for protein bands (protein of interest and endogenous loading control—β-tubulin from the same membrane) using Odyssey software (LI-CORE). Data were normalised to the expression levels of β-tubulin and presented as a relative fold change to the control sample.
Further, we tested the effect of P7-Pen on phosphorylation of p38 MAPK, IκBα degradation and modification of IRAK1 in human macrophages (THP-1 cells) and primary human monocytes. P7-Pen inhibited LPS-mediated phosphorylation of p38 MAPK (FIG. 24A) and inhibited IRAK1 ubiquitination/phosphorylation (visualised as band shift to higher molecular weight) in primary monocytes (FIG. 24B).
For “IATYASTALTGRQIKIWFQNRRMKWKK (Ac-IATYASTALTGRQIKIWFQNRRMKWKK-NH2) [Peptide P7C3-Pen, control peptide]”, the “pattern of inhibition of p38 MAPK phosphorylation and IRAK1 modification as seen with P7-Pen” value was “not”.
